Laboratory results: paper PMC11475408, “All‐Inorganic Polyoxometalates Act as Superchaotropic Membrane Carriers” (Advanced Materials (Deerfield Beach, Fla.), 2023)
Like-named read-outs stand apart in the source and are kept apart here.

Legend:
[1] = Hydrolysis/stability of POMs in buffer by NMR
Method: First, their long‐term (24 h and longer) fate in aqueous solution (slightly acidic and neutral) was investigated by applying the active NMR nuclei in their composition (Table S9 and Figures S24–S37, see the Supporting Information for details).
NMR-spectroscopic characterization of identity and stability
NMR spectroscopy for all POMs tested was performed under experimental conditions.

polyarginine = assay: ITC, POM into polyarginine; format: binding; conditions: 10 mM Tris, pH 7.4, value is Ka divided by 10^7
Method: (§1) All experiments were performed with a VP‐ITC MicroCalorimeter from MicroCal, Int,. at atmospheric pressure and 298.15 K. Solutions were degassed and thermostatic prior to the titration experiments in a ThermoVac accessory. A constant volume of POM ([PVW11]^4‒ or [SiMoW11]^4‒) (10 µL per injection) was injected into the oligopeptide solution (heptaArg, protamine, polyArg or heptaLys) in 10 mM Tris, pH 7.4 to determine the apparent binding affinity of [PVW11]^4‒ and [SiMoW11]^4‒ with the oligopeptides. Dilution heats were determined by titration of the POM into buffer and subtracted from the reaction heat. The neat reaction heat was fitted with Origin 7.0 software by using the “one‐set‐of‐sites” model to obtain the complex stability constant (K a) and molar reaction enthalpy (∆H°). The free energy (∆G°) and entropy changes (∆S°) were obtained according to the relation: ∆G° = −RTlnK a = ∆H°−T∆S°.
(§2) 4. Supramolecular interactions
(§3) Figure S10. Microcalorimetric titrations in 10 mM Tris, pH 7.4: Raw ITC data (top) for the sequential injections of POM solution into an oligoarginine solution, and apparent reaction heats (bottom) obtained from the integration of the calorimetric traces. […]
(§4) values and ± 0.5 kcal mol‒1 for ΔH and TΔS (duplicate measurements). Note that none of these interactions lead to any precipitation or aggregates, confirmed by the absence of any detectable signal by DLS. […]

heptaarginine = assay: ITC, POM into heptaarginine; format: binding; conditions: 10 mM Tris
Method: as §1, §2, §3, §4
Figure S11. Microcalorimetric titrations in 10 mM Tris, pH 7.4: Raw ITC data (top) for the sequential injections of POM solution into a heptalysine solution, and apparent reaction heats (bottom) obtained from the integration of the calorimetric traces. POM/heptalysine concentrations in µM: a, 200/8 and b, 150/10. Error data is 5% for the n values and ± 0.5 kcal mol‒1 for ΔH and TΔS (duplicate […]
Table S6. Binding constants (Ka in M‒1) and thermodinamic data (in kcal mol‒1) measured for the complex formation between the stable and active POMs and oligoarginines in 10 mM Tris, pH 7.4. a) […]
a) Error data is 5% for the n values and ± 0.5 kcal mol‒1 for ΔH and TΔS (duplicate measurements).

[2] = CF transport assay in EYPC⊃CF vesicles (carrier activity); format: biochemical

Substance: K4[α‐Si^IVMo^VIW^VI 11O40]·24H2O [[SiMoW11]^4‒]
- Hydrolysis/stability pH 5.5 ([1]; 10 mM Mes, 107 mM NaCl, pH 5.5, NMR, long-term (24 h and longer)): Stable
- Solution stability in Mes pH 5.5 (183W NMR) ([1]; 10 mM POM, 33 mM Mes pH 5.5 (final pH 5), only signals of intact anion, acquisition 60 h): solution stability for up to 60 h
- % parent anion, Tris-HCl pH 7.5 (183W NMR) ([1]; 10 mM POM, 33 mM Tris pH 7.5 (final pH 6.9), 183W NMR signal intensities, acquisition 60 h): 45%
- Hydrolysis at pH 7.5 (fraction hydrolysed) ([1]; neutral buffer pH 7.5, high concentration, NMR, after 24 h): 45%
- Ka/ 107, polyarginine (polyarginine): 1.6 M‒1
- Ka/ 107, heptaarginine (heptaarginine; pH 7.4, 298.15 K, value is Ka divided by 10^7, duplicates): 0.6 M‒1
- Ka, heptaarginine (Figure 2c,d) (heptaarginine; pH 7.4, POM/oligoarginine 100/8 and 200/10 µM): 6.3e+06 M⁻¹
- heptaLys Ymax ([2]; CF assay, EYPC (zwitterionic), 13 µM phospholipids, heptaLys cargo, ±2% error (SD)): 54%
- EC50 ([2]; CF assay, EYPC (zwitterionic), heptaLys cargo, 5% error (SD), read-out: heptaLys EC50): 22 µM
- HeptaArg Y max ([2]; CF assay, EYPC LUVs, 13 µM lipid, 10 µM heptaArg, 10 mM Hepes or Tris, 107 mM NaCl, pH 7.4, 10 min, Hill fit, triplicates, ±2% error (SD)): 66%
- EC50 ([2]; CF assay, EYPC LUVs, 0.1 µM polyArg, pH 7.4, 5% error (SD), read-out: PolyArg EC 50): 13 µM
- PolyArg Y max ([2]; CF assay, EYPC LUVs, 0.1 µM polyArg, pH 7.4, ±2% error (SD)): 94%
- EC50 ([2]; CF assay, EYPC LUVs, 1 µM protamine, pH 7.4, 5% error (SD), read-out: Protamine EC 50): 19 µM
- Protamine Y max ([2]; CF assay, EYPC LUVs, 1 µM protamine, pH 7.4, ±2% error (SD)): 72%
- EC50 ([2]; CF assay, EYPC LUVs, 10 µM heptaArg, pH 7.4, carrier concentration for 50% of Ymax, 5% error (SD), read-out: HeptaArg EC 50): 17 µM
- HeptaArg Ymax, pH 5.5 ([2]; CF assay, EYPC vesicles, 10 µM heptaArg, 10 mM Mes, 107 mM NaCl, pH 5.5, ±2% error (SD)): 66%
- EC50 ([2]; CF assay, EYPC vesicles, heptaArg cargo, 10 mM Mes, 107 mM NaCl, pH 5.5, 5% error (SD), read-out: HeptaArg EC50, pH 5.5): 9 µM
- PolyArg Ymax, pH 5.5 ([2]; CF assay, EYPC vesicles, polyArg cargo, 10 mM Mes, 107 mM NaCl, pH 5.5): 86%
- EC50 ([2]; CF assay, EYPC vesicles, polyArg cargo, pH 5.5, read-out: PolyArg EC50, pH 5.5): 5 µM
- Protamine Ymax, pH 5.5 ([2]; CF assay, EYPC vesicles, protamine cargo, 10 mM Mes, 107 mM NaCl, pH 5.5): 80%
- EC50 ([2]; CF assay, EYPC vesicles, protamine cargo, pH 5.5, read-out: Protamine EC50, pH 5.5): 14 µM
- heptaLys E ([2]; EYPC (zwitterionic), heptaLys cargo, f = 20.6, 10% error): 4.4
- PolyArg E (activation efficiency) ([2]; EYPC LUVs, 0.1 µM polyArg, pH 7.4, f = 20.6, 10% error): 8.6
- Protamine E (activation efficiency) ([2]; EYPC LUVs, 1 µM protamine, pH 7.4, f = 20.6, 10% error): 6.0
- HeptaArg E (activation efficiency) ([2]; EYPC LUVs, 10 µM heptaArg, pH 7.4, E = Ymax(pEC50/f), f = 20.6, 10% error): 5.7
- HeptaArg E, pH 5.5 ([2]; EYPC vesicles, heptaArg, pH 5.5, f = 20.6, 10% error): 6.6
- PolyArg E, pH 5.5 ([2]; EYPC vesicles, polyArg, pH 5.5, f = 20.6): 9.7
- Protamine E, pH 5.5 ([2]; EYPC vesicles, protamine, pH 5.5, f = 20.6): 7.3
- Transport activity (in words) ([2]; EYPC⊃CF vesicles, neutral pH, carrier then cargo): triggered the desired increase in fluorescence characteristic for cargo transport
- Onset for transport activity (carrier concentration) ([2]; vesicles, heptaArg dose-response curves (Figure 2b)): around 1 µM
